Tested on: proteins in HEK293T cells
Test: MS-based mapping of FFF probe-modified peptides (isoTOP, sites of labeling)
Type: binding, human
In short: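 Live cells treated with fragment probes (200-250 μM) in serum-free DMEM, with or without competitor ligands. Proteomes clicked to light/heavy biotin-TEV-azide, streptavidin-enriched, trypsin- then TEV-digested; probe-modified peptides identified by LC-MS/MS with any residue allowed as modified site, isoTOP ratios quantified by CIMAGE.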

With C#CCCC1(CCC(=O)Nc2ccc(C3CCNCC3)cc2)N=N1 [probe 9, 3-(3-(But-3-yn-1-yl)-3H-diazirin-3-yl)-N-(4-(piperidin-4-yl)phenyl)propanamide] the “Labeled Peptide of HEXA Beta-hexosaminidase subuit alpha” value (Accession P06865, residues of probe-labeled peptide, family Enzymes) was 489-499, the “Labeled Peptide of GAA Lysosomal alpha-glucosidase” value (Accession P10253, residues of probe-labeled peptide, family Enzymes) was 855-870 and the “Labeled Peptide of GLB1 Beta-galactosidase” value (Accession P16278, residues of probe-labeled peptide, family Enzymes) was 286-299. For the same molecule, the “Labeled Peptide” value (HEXA Beta-hexosaminidase subunit alpha, residues of probe-modified peptide) was 489-499, the “Labeled Peptide” value (HSP90B1 Endoplasmin, residues of probe-modified peptide) was 117-135 and the “Labeled Peptide” value (LGALS3BP Galectin-3-binding protein (Q08380), residues of the probe-labeled peptide) was 522-541. For the same molecule, the “Labeled Peptide” value (MAN2B1 Lysosomal alpha-mannosidase (O00754), residues of the probe-labeled peptide) was 614-638, the “Labeled Peptide” value (MAN2B2 Epididymis specific alpha-mannosidase (Q9Y2E5), residues of the probe-labeled peptide) was 642-664 and the “Labeled Peptide” value (NAGLU Alpha-N-acetylglucosaminidase (P54802), residues of the probe-labeled peptide) was 566-580. The “Labeled Peptide” value (P4HB Protein disulfide-isomerase (P07237), residues of the probe-labeled peptide) was 171-195, the “Labeled Peptide” value (P00338 LDHA L-lactate dehydrogenase A chain) was 43-57 and the “Labeled Peptide” value (P06865 HEXA Beta-hexosaminidase subunit alpha) was 489-499. For the same molecule, the “Labeled Peptide” value (P07339 CTSD Cathepsin D) was 236-253, the “Labeled Peptide” value (P14625 HSP90B1 Endoplasmin) was 117-135 and the “Labeled Peptide” value (P16278 GLB1 Beta-galactosidase) was 286-299. For the same molecule, the “Labeled Peptide (residues) of SMYD3 SET and MYND domain-containing protein 3” value (Q9H7B4, peptide DQYCLECDCFR, PDB 5HQ8) was 255-265, the “Labeled Peptide” value (protein ATP1A1 (P05023), residues of probe-labeled peptide) was 894-911 and the “Labeled Peptide” value (protein C19orf6 Membralin (Q4ZIN3), residues of probe-labeled peptide) was 254-271. The “Labeled Peptide” value (protein CCT6A T-complex protein 1 subunit zeta (P40227), residues of probe-labeled peptide) was 400-424, the “Labeled Peptide” value (protein CLN5 Ceroid-lipofuscinosis neuronal protein 5 (O75503), residues of probe-labeled peptide) was 74-96 and the “Labeled Peptide” value (protein CPVL Probable serine carboxypeptidase CPVL (Q9H3G5), residues of probe-labeled peptide) was 195-208. The “Labeled Peptide” value (protein CTSD Cathepsin D, residues of probe-labeled peptide) was 236-253, the “Labeled Peptide” value (protein CTSD Cathespin D (P07339), residues of probe-labeled peptide) was 236-253 and the “Labeled Peptide” value (protein DNASE2 Deoxyribonuclease-2-alpha (O00115), residues of probe-labeled peptide) was 173-202. For the same molecule, the “Labeled Peptide” value (protein ECHDC1 Ethylmalonyl-CoA decarboxylase (Q9NTX5), residues of probe-labeled peptide) was 272-283, the “Labeled Peptide” value (protein EIF4H Eukaryotic translation initiation factor 4H (Q15056), residues of probe-labeled peptide) was 97-109 and the “Labeled Peptide” value (protein FARSB Phenylalanine--tRNA ligase beta subunit, residues of probe-labeled peptide) was 72-82. For the same molecule, the “Labeled Peptide” value (protein FARSB Phenylalanini--tRNA ligase beta subunit (Q9NSD9), residues of probe-labeled peptide) was 72-82, the “Labeled Peptide” value (protein GLB1 Beta-galactosidase, residues of probe-labeled peptide) was 286-299 and the “Labeled Peptide” value (protein LDHA L-lactate dehydrogenase A chain, residues of the probe-labeled peptide) was 43-57. The “Labeled Peptide” value (protein NAGLU Alpha-N-acetylglucosaminidase, residues of the probe-labeled peptide) was 566-580, the “Labeled Peptide” value (protein P4HB Protein disulfide-isomerase, residues of the probe-labeled peptide) was 171-195 and the “Labeled Peptide” value (protein P46977 STT3A Dolichyl-diphosphooligosaccharide--protein glycosy) was 572-595. The “Labeled Peptide” value (protein PCYOX1 Prenylcysteine oxidase 1 (Q9UHG3)) was 292-304, the “Labeled Peptide” value (protein PDIA4 Protein disulfide-isomerase A4 (P13667)) was 486-499 and the “Labeled Peptide” value (protein PHB Prohibitin (P35232)) was 220-239. For the same molecule, the “Labeled Peptide” value (protein Q8IXU6 SLC35F2 Solute carrier family 35 member F2) was 188-221, the “Labeled Peptide” value (protein Q8TCJ2 STT3B Dolichyl-diphosphooligosaccharide--protein glycosy) was 651-674 and the “Labeled Peptide” value (protein Q9BVK6 TMED9 Transmembrane emp24 domain-containg protein 9) was 49-65. For the same molecule, the “Labeled Peptide” value (protein Q9H7B4 SMYD3 SET and MYND domain-containing protein 3) was 255-265, the “Labeled Peptide” value (protein Q92973 TNPO1 Transportin-1) was 273-298 and the “Labeled Peptide” value (protein RALA Ras-related protein Ral-A (P11233)) was 28-47. The “Labeled Peptide” value (protein SMYD3 SET and MYND domain-containing protein 3, residues of the probe-modified peptide) was 255-265 and the “Labeled Peptide” value (protein TNPO1 Transportin-1, residues of the probe-modified peptide) was 273-298.

— patent publication US11535597B2, “Photoreactive ligands and uses thereof” (The Scripps Research Institute, priority 2017, dated 2022)
